pIC50: −log10 of the molar value.
Tested on: NCI-H211 complex spheroid viability
Assay: Anticancer human tumor NCI-H211 cell line growth inhibition [LSD1];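 further: luminescent viability read after seven days of drug exposure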;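 on viability, T/C: 100% = DMSO vehicle control viability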
Details: for pIC50: curve of first compound; for viability, T/C: stronger effect = lower value
Summary of the method: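 Drug combinations with the LSD1 inhibitor iadademstat tested on tumor cells co-cultured as spheroids with endothelial cells and mesenchymal stem cells. Concentrations descended in half-log increments from clinical Cmax or 10 microM.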

[1] = second compound 0.1 µM, first compound 0.0316 µM
[2] = second compound 0.1 µM, first compound 0.1 µM
[3] = second compound 0.1 µM, first compound 0.316 µM
[4] = second compound 0.1 µM, first compound 1 µM
[5] = second compound 0.1 µM, first compound 3.16 µM
[6] = second compound 0.1 µM, first compound 10 µM
[7] = second compound 0.316 µM, first compound 0.0316 µM
[8] = second compound 0.316 µM, first compound 0.1 µM
[9] = second compound 0.316 µM, first compound 0.316 µM
[10] = second compound 0.316 µM, first compound 1 µM
[11] = second compound 0.316 µM, first compound 3.16 µM
[12] = second compound 0.316 µM, first compound 10 µM
[13] = second compound 1 µM, first compound 0.0316 µM
[14] = second compound 1 µM, first compound 0.1 µM
[15] = second compound 1 µM, first compound 0.316 µM
[16] = second compound 1 µM, first compound 1 µM
[17] = second compound 1 µM, first compound 3.16 µM
[18] = second compound 1 µM, first compound 10 µM
[19] = second compound 3.16 µM, first compound 0.0316 µM
[20] = second compound 3.16 µM, first compound 0.1 µM
[21] = second compound 3.16 µM, first compound 0.316 µM
[22] = second compound 3.16 µM, first compound 1 µM
[23] = second compound 3.16 µM, first compound 3.16 µM
[24] = second compound 3.16 µM, first compound 10 µM
[25] = second compound 10 µM, first compound 0.0316 µM
[26] = second compound 10 µM, first compound 0.1 µM
[27] = second compound 10 µM, first compound 0.316 µM
[28] = second compound 10 µM, first compound 1 µM
[29] = second compound 10 µM, first compound 3.16 µM
[30] = second compound 10 µM, first compound 10 µM
[31] = second compound 0.1 µM, first compound 0.00949 µM
[32] = second compound 0.1 µM, first compound 0.03 µM
[33] = second compound 0.1 µM, first compound 0.0949 µM
[34] = second compound 0.1 µM, first compound 0.3 µM
[35] = second compound 0.316 µM, first compound 0.00949 µM
[36] = second compound 0.316 µM, first compound 0.03 µM
[37] = second compound 0.316 µM, first compound 0.0949 µM
[38] = second compound 0.316 µM, first compound 0.3 µM
[39] = second compound 1 µM, first compound 0.00949 µM
[40] = second compound 1 µM, first compound 0.03 µM
[41] = second compound 1 µM, first compound 0.0949 µM
[42] = second compound 1 µM, first compound 0.3 µM
[43] = second compound 3.16 µM, first compound 0.00949 µM
[44] = second compound 3.16 µM, first compound 0.03 µM
[45] = second compound 3.16 µM, first compound 0.0949 µM
[46] = second compound 3.16 µM, first compound 0.3 µM
[47] = second compound 10 µM, first compound 0.00949 µM
[48] = second compound 10 µM, first compound 0.03 µM
[49] = second compound 10 µM, first compound 0.0949 µM
[50] = second compound 10 µM, first compound 0.3 µM

CC1(C)CCC(CN2CCN(c3ccc(C(=O)NS(=O)(=O)c4ccc(NCC5CCOCC5)c([N+](=O)[O-])c4)c(Oc4cnc5[nH]ccc5c4)c3)CC2)=C(c2ccc(Cl)cc2)C1 + NC1CCC(NC2CC2c2ccccc2)CC1
pIC50 (second compound 0.1 µM): 5.24 | pIC50 (second compound 0.316 µM): 5.24 | pIC50 (second compound 1 µM): < 5.00 | pIC50 (second compound 3.16 µM): > 7.50 | pIC50 (second compound 10 µM): > 7.50 | viability, T/C [1]: 55.3% | viability, T/C [2]: 61.6% | viability, T/C [3]: 73.5% | viability, T/C [4]: 102% | viability, T/C [5]: 86.2% | viability, T/C [6]: 26.8% | viability, T/C [7]: 64.8% | viability, T/C [8]: 60.5% | viability, T/C [9]: 71.2% | viability, T/C [10]: 84.1% | viability, T/C [11]: 101% | viability, T/C [12]: 26% | viability, T/C [13]: 48.6% | viability, T/C [14]: 59% | viability, T/C [15]: 57.6% | viability, T/C [16]: 81.3% | viability, T/C [17]: 93.5% | viability, T/C [18]: 24.7% | viability, T/C [19]: 41.9% | viability, T/C [20]: 44.4% | viability, T/C [21]: 57.9% | viability, T/C [22]: 75.1% | viability, T/C [23]: 88.4% | viability, T/C [24]: 21.1% | viability, T/C [25]: 25.1% | viability, T/C [26]: 24.9% | viability, T/C [27]: 30% | viability, T/C [28]: 33.8% | viability, T/C [29]: 52.6% | viability, T/C [30]: 19.8%

CC1COCCN1c1cc(C2(S(C)(=N)=O)CC2)nc(-c2ccnc3[nH]ccc23)n1 (stereo not given) + NC1CCC(NC2CC2c2ccccc2)CC1
pIC50 (second compound 0.1 µM): 6.48 | pIC50 (second compound 0.316 µM): 6.74 | pIC50 (second compound 1 µM): 6.53 | pIC50 (second compound 3.16 µM): 6.73 | pIC50 (second compound 10 µM): > 7.50 | viability, T/C [1]: 67.7% | viability, T/C [2]: 64.1% | viability, T/C [3]: 51.6% | viability, T/C [4]: 16.1% | viability, T/C [5]: 3.34% | viability, T/C [6]: 2.31% | viability, T/C [7]: 79.6% | viability, T/C [8]: 63% | viability, T/C [9]: 38.7% | viability, T/C [10]: 13.6% | viability, T/C [11]: 3.19% | viability, T/C [12]: 2.33% | viability, T/C [13]: 66.4% | viability, T/C [14]: 67.5% | viability, T/C [15]: 48.4% | viability, T/C [16]: 16.4% | viability, T/C [17]: 3.53% | viability, T/C [18]: 2.09% | viability, T/C [19]: 66.5% | viability, T/C [20]: 55.5% | viability, T/C [21]: 44.5% | viability, T/C [22]: 17.2% | viability, T/C [23]: 2.59% | viability, T/C [24]: 1.55% | viability, T/C [25]: 40.9% | viability, T/C [26]: 39% | viability, T/C [27]: 25.4% | viability, T/C [28]: 9.13% | viability, T/C [29]: 1.75% | viability, T/C [30]: 1.04%

CCN(c1cc(-c2ccc(CN3CCOCC3)cc2)cc(C(=O)NCc2c(C)cc(C)[nH]c2=O)c1C)C1CCOCC1 + NC1CCC(NC2CC2c2ccccc2)CC1
pIC50 (second compound 0.1 µM): < 5.52 | pIC50 (second compound 0.316 µM): < 5.52 | pIC50 (second compound 1 µM): < 5.52 | pIC50 (second compound 3.16 µM): 5.52 | pIC50 (second compound 10 µM): > 8.02 | viability, T/C [31]: 76% | viability, T/C [32]: 60.9% | viability, T/C [33]: 66.9% | viability, T/C [34]: 50.1% | viability, T/C (second compound 0.1 µM, first compound 0.949 µM): 56.8% | viability, T/C (second compound 0.1 µM, first compound 3 µM): 64.2% | viability, T/C [35]: 66.3% | viability, T/C [36]: 68.5% | viability, T/C [37]: 72.2% | viability, T/C [38]: 59.9% | viability, T/C (second compound 0.316 µM, first compound 0.949 µM): 55.1% | viability, T/C (second compound 0.316 µM, first compound 3 µM): 60% | viability, T/C [39]: 60.3% | viability, T/C [40]: 63.8% | viability, T/C [41]: 55.4% | viability, T/C [42]: 63.7% | viability, T/C (second compound 1 µM, first compound 0.949 µM): 58.3% | viability, T/C (second compound 1 µM, first compound 3 µM): 59.1% | viability, T/C [43]: 60% | viability, T/C [44]: 48.4% | viability, T/C [45]: 54.3% | viability, T/C [46]: 49.9% | viability, T/C (second compound 3.16 µM, first compound 0.949 µM): 48.7% | viability, T/C (second compound 3.16 µM, first compound 3 µM): 54.9% | viability, T/C [47]: 40.4% | viability, T/C [48]: 33.3% | viability, T/C [49]: 30.8% | viability, T/C [50]: 26% | viability, T/C (second compound 10 µM, first compound 0.949 µM): 21.1% | viability, T/C (second compound 10 µM, first compound 3 µM): 23.7%

Nc1ncn(C2CC(O)C(CO)S2)c(=O)n1 (stereo not given) + NC1CCC(NC2CC2c2ccccc2)CC1
pIC50 (second compound 0.1 µM): > 9.02 | pIC50 (second compound 0.316 µM): 8.92 | pIC50 (second compound 1 µM): 9.00 | pIC50 (second compound 3.16 µM): > 9.02 | pIC50 (second compound 10 µM): > 9.02 | viability, T/C (second compound 0.1 µM, first compound 0.000949 µM): 47.8% | viability, T/C (second compound 0.1 µM, first compound 0.003 µM): 27.1% | viability, T/C [31]: 8.74% | viability, T/C [32]: 3.26% | viability, T/C [33]: 1.8% | viability, T/C [34]: 1.91% | viability, T/C (second compound 0.316 µM, first compound 0.000949 µM): 55.8% | viability, T/C (second compound 0.316 µM, first compound 0.003 µM): 26.6% | viability, T/C [35]: 12.1% | viability, T/C [36]: 3.64% | viability, T/C [37]: 2.15% | viability, T/C [38]: 1.98% | viability, T/C (second compound 1 µM, first compound 0.000949 µM): 51.4% | viability, T/C (second compound 1 µM, first compound 0.003 µM): 26.6% | viability, T/C [39]: 8.75% | viability, T/C [40]: 3.07% | viability, T/C [41]: 2.09% | viability, T/C [42]: 1.41% | viability, T/C (second compound 3.16 µM, first compound 0.000949 µM): 47.7% | viability, T/C (second compound 3.16 µM, first compound 0.003 µM): 23.7% | viability, T/C [43]: 7.85% | viability, T/C [44]: 2.42% | viability, T/C [45]: 1.84% | viability, T/C [46]: 1.65% | viability, T/C (second compound 10 µM, first compound 0.000949 µM): 25.3% | viability, T/C (second compound 10 µM, first compound 0.003 µM): 9.03% | viability, T/C [47]: 3.09% | viability, T/C [48]: 1.41% | viability, T/C [49]: 0.7% | viability, T/C [50]: 0.58%

O=C(C=Cn1cnc(-c2cc(C(F)(F)F)cc(C(F)(F)F)c2)n1)NNc1cnccn1 + NC1CCC(NC2CC2c2ccccc2)CC1
pIC50 (second compound 0.1 µM): > 8.50 | pIC50 (second compound 0.316 µM): > 8.50 | pIC50 (second compound 1 µM): > 8.50 | pIC50 (second compound 3.16 µM): > 8.50 | pIC50 (second compound 10 µM): > 8.50 | viability, T/C (second compound 0.1 µM, first compound 0.00316 µM): 33.4% | viability, T/C (second compound 0.1 µM, first compound 0.01 µM): 20.6% | viability, T/C [1]: 11.6% | viability, T/C [2]: 6.71% | viability, T/C [3]: 2.42% | viability, T/C [4]: 1.48% | viability, T/C (second compound 0.316 µM, first compound 0.00316 µM): 40.1% | viability, T/C (second compound 0.316 µM, first compound 0.01 µM): 23.5% | viability, T/C [7]: 11.2% | viability, T/C [8]: 6.77% | viability, T/C [9]: 2.16% | viability, T/C [10]: 8.93% | viability, T/C (second compound 1 µM, first compound 0.00316 µM): 41.4% | viability, T/C (second compound 1 µM, first compound 0.01 µM): 21.7% | viability, T/C [13]: 9.68% | viability, T/C [14]: 5.65% | viability, T/C [15]: 2.43% | viability, T/C [16]: 1.5% | viability, T/C (second compound 3.16 µM, first compound 0.00316 µM): 32.9% | viability, T/C (second compound 3.16 µM, first compound 0.01 µM): 22.1% | viability, T/C [19]: 11% | viability, T/C [20]: 5.74% | viability, T/C [21]: 2.43% | viability, T/C [22]: 1.51% | viability, T/C (second compound 10 µM, first compound 0.00316 µM): 24.4% | viability, T/C (second compound 10 µM, first compound 0.01 µM): 15.7% | viability, T/C [25]: 7.59% | viability, T/C [26]: 3.68% | viability, T/C [27]: 1.66% | viability, T/C [28]: 1.3%

From PubChem BioAssay AID1918940 (Molecular Pharmacology Branch, DTP, NCI, 2023)
